pIC50: −log10 of the molar value.
How the values were obtained:
[1] = target: T1, IP receptor (Homo sapiens, UniProt P43119); assay: Iloprost-induced cAMP production assay in HEL cells (Assay 2); assay type: cell-based; conditions: read-out: Activity grade assay 2
T1 construct: HEL cells were collected with centrifugation and washed with cAMP assay buffer; host or cells: HEL 92.1.7 human erythroleukemia cells
Procedure: [Iloprost-Induced cAMP Production Assay in HEL Cells] (Assay 2)
HEL cells were collected with centrifugation and washed with cAMP assay buffer (CAB: Hank's balanced salt solution, 17 mM Hepes, 0.1% bovine serum albumin, 1 mM IBMX, 0.4% DMSO, and 1 mM L-ascorbic acid sodium salt (pH 7.4)). Cells were suspended at the density of 2.5×10^5 cells/ml in CAB, and twenty thousand cells in 80 μl aliquot of cell suspension were put in a well of 96 well plate (Falcon). Then, 10 μl of compound solution diluted with 1% DMSO in CAB or buffer alone was added. The plate was incubated at 37° C. for 30 min. Then, another 10 μl containing 100 nM iloprost in CAB or buffer alone was added and further incubated at 37° C. for 30 min. cAMP content in the well was measured by a cAMP ELISA kit (Applied Biosystems, USA).
Results of Iloprost-induced cAMP production assay (Assay2) are shown in Examples and tables of the Examples below. For practical reasons, the compounds are grouped in three classes of activity as follows: A(=or<)0.1μM<B(=or<)1μM<C

T1 sequence (P43119 whole entry): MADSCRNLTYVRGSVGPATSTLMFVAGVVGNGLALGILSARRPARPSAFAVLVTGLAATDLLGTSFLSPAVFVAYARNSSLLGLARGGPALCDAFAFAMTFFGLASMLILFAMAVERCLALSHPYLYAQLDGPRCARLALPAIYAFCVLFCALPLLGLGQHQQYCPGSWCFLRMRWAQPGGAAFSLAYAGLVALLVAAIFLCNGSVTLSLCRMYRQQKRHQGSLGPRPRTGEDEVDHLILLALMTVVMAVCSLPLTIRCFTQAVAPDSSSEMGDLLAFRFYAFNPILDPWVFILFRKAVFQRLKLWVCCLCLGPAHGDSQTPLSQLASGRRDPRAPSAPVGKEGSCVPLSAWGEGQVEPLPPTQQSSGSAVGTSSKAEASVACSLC

| pIC50 [1] | melting point | SMILES |
| --- | --- | --- |
| > 7.00 | 230 °C | O=C(N[C@@H](Cc1ccccc1)C(=O)O)c1ccc2cc(OCc3ccccc3)ccc2c1 (single isomer, unassigned) [Example 1-1, N-(6-Benzyloxy-2-naphthoyl)phenylalanine] |
| < 6.00 | 196 to 198 °C | O=C(NC(CO)C(=O)O)c1ccc2cc(OCc3ccccc3)ccc2c1 (centres unmarked) [Example 1-2] |
| > 7.00 | 212 to 214 °C (dec.) | O=C(NC(Cc1ccc(C(F)(F)F)cc1)C(=O)O)c1ccc2cc(OCc3ccccc3)ccc2c1 (centres unmarked) [Example 1-3] |
| 6.00 to 7.00 | 225 to 227 °C | O=C(NC(Cc1ccccc1)C(=O)O)c1ccc2cc(OCCOc3ccccc3)ccc2c1 (centres unmarked) [Example 1-4] |
| > 7.00 | 197 °C | O=C(NC(Cc1ccccc1)C(=O)O)c1ccc2cc(OCc3ccc(F)cc3)ccc2c1 (centres unmarked) [Example 1-5] |
| > 7.00 | 197 to 199 °C | O=C(NC(Cc1ccccc1)C(=O)O)c1ccc2cc(OCc3cccc(F)c3)ccc2c1 (centres unmarked) [Example 1-6] |
| > 7.00 | 180 to 182 °C | O=C(NC(Cc1ccccc1)C(=O)O)c1ccc2cc(OCc3ccccc3F)ccc2c1 (centres unmarked) [Example 1-7] |
| > 7.00 | 217 °C | O=C(NC(Cc1ccccc1)C(=O)O)c1ccc2cc(OCc3cccnc3)ccc2c1 (centres unmarked) [Example 1-8] |
| 6.00 to 7.00 | 214 °C | O=C(NC(Cc1ccccc1)C(=O)O)c1ccc2cc(OCc3ccccn3)ccc2c1 (centres unmarked) [Example 1-9] |
| > 7.00 | 185 °C | O=C(NC(Cc1ccccc1)C(=O)O)c1ccc2cc(OCc3ccc(F)c(F)c3)ccc2c1 (centres unmarked) [Example 1-10] |
| > 7.00 | 168 to 169 °C | O=C(NC(Cc1ccccc1)C(=O)O)c1ccc2cc(OCCn3cccc3)ccc2c1 (centres unmarked) [Example 1-11] |
| > 7.00 | 220 to 221 °C | O=C(NC(Cc1ccccc1)C(=O)O)c1ccc2cc(OCc3ccncc3)ccc2c1 (centres unmarked) [Example 1-12] |
| 6.00 to 7.00 |  | O=C(NC(Cc1ccccc1C(F)(F)F)C(=O)O)c1ccc2cc(OCc3ccccc3)ccc2c1 (centres unmarked) [Example 1-13] |
| > 7.00 |  | O=C(NC(Cc1cccc(C(F)(F)F)c1)C(=O)O)c1ccc2cc(OCc3ccccc3)ccc2c1 (centres unmarked) [Example 1-14] |
| > 7.00 |  | O=C(NC(Cc1c[nH]c2ccccc12)C(=O)O)c1ccc2cc(OCc3ccccc3)ccc2c1 (centres unmarked) [Example 1-15] |
| > 7.00 |  | COc1ccc(CC(NC(=O)c2ccc3cc(OCc4ccccc4)ccc3c2)C(=O)O)cc1 (centres unmarked) [Example 1-16] |
| > 7.00 |  | COc1cc(CC(NC(=O)c2ccc3cc(OCc4ccccc4)ccc3c2)C(=O)O)ccc1O (centres unmarked) [Example 1-17] |
| > 7.00 |  | O=C(NC(C(=O)O)C(O)c1ccccc1)c1ccc2cc(OCc3ccccc3)ccc2c1 (centres unmarked) [Example 1-18] |
| > 7.00 | 144 °C | O=C(NC(Cc1ccccc1)C(=O)O)c1ccc2cc(OCCc3ccccc3)ccc2c1 (centres unmarked) [Example 1-19] |
| > 7.00 | 202 to 204 °C | O=C(NC(Cc1ccc(Cl)cc1)C(=O)O)c1ccc2cc(OCc3ccccc3)ccc2c1 (centres unmarked) [Example 1-20] |
| > 7.00 | 188 to 191 °C | O=C(NC(Cc1cccc(F)c1)C(=O)O)c1ccc2cc(OCc3ccccc3)ccc2c1 (centres unmarked) [Example 1-21] |
| > 7.00 | 214 to 216 °C | O=C(NC(Cc1ccc(F)cc1)C(=O)O)c1ccc2cc(OCc3ccccc3)ccc2c1 (centres unmarked) [Example 1-22] |
| > 7.00 | 215 °C | O=C(NC(Cc1ccccc1)C(=O)O)c1ccc2cc(OCc3ccccc3Cl)ccc2c1 (centres unmarked) [Example 1-23] |

| pIC50 [1] | melting point | SMILES |
| --- | --- | --- |
| > 7.00 | 187 °C | O=C(NC(Cc1ccccc1)C(=O)O)c1ccc2cc(OCc3cccc(Cl)c3)ccc2c1 (centres unmarked) [Example 1-24] |
| 6.00 to 7.00 | 226 °C | O=C(NC(Cc1ccccc1)C(=O)O)c1ccc2cc(OCc3ccc(Cl)cc3)ccc2c1 (centres unmarked) [Example 1-25] |
| 6.00 to 7.00 | 167 °C | O=C(NC(Cc1ccccc1)C(=O)O)c1ccc2cc(OCc3ccccc3C(F)(F)F)ccc2c1 (centres unmarked) [Example 1-26] |
| < 6.00 | 158 °C | O=C(NC(Cc1ccccc1)C(=O)O)c1ccc2cc(OCc3cccc(C(F)(F)F)c3)ccc2c1 (centres unmarked) [Example 1-27] |
| < 6.00 | 224 °C | O=C(NC(Cc1ccccc1)C(=O)O)c1ccc2cc(OCc3ccc(C(F)(F)F)cc3)ccc2c1 (centres unmarked) [Example 1-28] |
| > 7.00 | 169 °C | COc1ccccc1COc1ccc2cc(C(=O)NC(Cc3ccccc3)C(=O)O)ccc2c1 (centres unmarked) [Example 1-29] |
| > 7.00 | 163 °C | COc1cccc(COc2ccc3cc(C(=O)NC(Cc4ccccc4)C(=O)O)ccc3c2)c1 (centres unmarked) [Example 1-30] |
| < 6.00 | 188 °C | COc1ccc(COc2ccc3cc(C(=O)NC(Cc4ccccc4)C(=O)O)ccc3c2)cc1 (centres unmarked) [Example 1-31] |
| 6.00 to 7.00 | 202 °C | O=C(NC(Cc1ccccc1)C(=O)O)c1ccc2cc(OCc3ccc(Cl)c(Cl)c3)ccc2c1 (centres unmarked) [Example 1-32] |
| > 7.00 | 211 °C | O=C(NC(Cc1ccccc1)C(=O)O)c1ccc2cc(OCc3cccc(Cl)c3Cl)ccc2c1 (centres unmarked) [Example 1-33] |
| > 7.00 | 180 °C | O=C(NC(Cc1ccccc1)C(=O)O)c1ccc2cc(OCc3cc(Cl)cc(Cl)c3)ccc2c1 (centres unmarked) [Example 1-34] |
| > 7.00 | 140 °C | COc1cc(COc2ccc3cc(C(=O)NC(Cc4ccccc4)C(=O)O)ccc3c2)cc(OC)c1 (centres unmarked) [Example 1-35] |
| 6.00 to 7.00 | 157 °C | O=C(NC(Cc1ccccc1)C(=O)O)c1ccc2cc(OCc3cccc(OC(F)(F)F)c3)ccc2c1 (centres unmarked) [Example 1-36] |
| < 6.00 | 158 °C | O=C(NC(Cc1ccccc1)C(=O)O)c1ccc2cc(OCc3ccccc3OC(F)(F)F)ccc2c1 (centres unmarked) [Example 1-37] |
| < 6.00 | 161 °C | COc1cccc(COc2ccc3cc(C(=O)NC(Cc4ccccc4)C(=O)O)ccc3c2)c1OC (centres unmarked) [Example 1-38] |
| 6.00 to 7.00 | 202 °C | Cc1c(COc2ccc3cc(C(=O)NC(Cc4ccccc4)C(=O)O)ccc3c2)cccc1[N+](=O)[O-] (centres unmarked) [Example 1-39] |
| 6.00 to 7.00 | 210 °C | Cc1ccc(C)c(COc2ccc3cc(C(=O)NC(Cc4ccccc4)C(=O)O)ccc3c2)c1 (centres unmarked) [Example 1-40] |
| 6.00 to 7.00 | 245 °C | O=C(NC(Cc1ccccc1)C(=O)O)c1ccc2cc(OCc3c(Cl)cccc3Cl)ccc2c1 (centres unmarked) [Example 1-41] |
| < 6.00 | 202 °C | O=C(NC(Cc1ccccc1)C(=O)O)c1ccc2cc(OCc3ccc(Cl)cc3Cl)ccc2c1 (centres unmarked) [Example 1-42] |
| 6.00 to 7.00 | 172 to 173 °C (dec.) | O=C(NC(Cc1ccccn1)C(=O)O)c1ccc2cc(OCc3ccccc3)ccc2c1 (centres unmarked) [Example 1-43] |
| > 7.00 | 200 to 202 °C | O=C(NC(Cc1cccs1)C(=O)O)c1ccc2cc(OCc3ccccc3)ccc2c1 (centres unmarked) [Example 1-44] |
| < 6.00 |  | O=C(N[C@@H](Cc1ccccc1)C(=O)O)c1ccc2cc(OCc3ccccc3)ccc2c1 [Example 2-2, N-[6-(benzyloxy)-2-naphthoyl]-L-phenylalanine] |

Source: patent US20060166989A1, “2-naphthamide derivatives” (Bayer Healthcare AG, priority 2002, published 2006)
